In US10294202B2, “Pyrrolidinones as herbicides” (FMC Corporation, priority 2013, dated 2019):

What was measured:
ragweed = test: Test A pre-/postemergence herbicide test; format: in vivo, Ambrosia elatior
How it was run: (§1)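 Scoring was visual, relative to untreated controls, on a 0–100 scale after about 10 greenhouse days. Preemergence treatment used a directed soil spray over seeded loam/sand; postemergence treatment targeted one- to two-leaf plants of 2–10 cm.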

ryegrass, Italian = test: Test A pre-/postemergence herbicide test; format: in vivo, Lolium multiflorum
How it was run: as §1

galium = test: Test A postemergence herbicide test; format: in vivo, Galium aparine
How it was run: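 Plants at the one- to two-leaf stage, 2–10 cm tall, grown in loam/sand pots, received postemergence sprays of the test chemicals. After about 10 days in the greenhouse, injury was scored visually against untreated controls on a 0–100 scale (0 none, 100 complete control).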

[1] = Postemergence, 125 g ai/ha, visual rating on 0 to 100 scale (0 no effect, 100 complete control), approx. 10 days
[2] = Postemergence, 500 g ai/ha, 0 to 100 scale (0 no effect, 100 complete control)
[3] = Preemergence, 125 g ai/ha, 0 to 100 scale where 0 is no effect and 100 is complete control
[4] = preemergence, 500 g ai/ha, 0 to 100 scale, 0 is no effect and 100 is complete control
[5] = 125 g ai/ha, 0 to 100 scale, 0 is no effect, 100 is complete control
[6] = 500 g ai/ha, 0 to 100 scale (0 no effect, 100 complete control)
[7] = Preemergence, 500 g ai/ha, visual rating on 0 to 100 scale (0 no effect, 100 complete control)
[8] = 125 g ai/ha, visual rating on 0 to 100 scale (0 no effect, 100 complete control), approx. 10 days
[9] = 125 g ai/ha, visual rating, 0 to 100 scale, 0 no effect, 100 complete control, approximately 10 days, preemergence
[10] = Postemergence, 125 g ai/ha, 0 to 100 scale, 0 is no effect, 100 is complete control

Structure (SMILES)	Plant response rating, Ragweed (ragweed; [1])	Plant response rating, Ragweed (ragweed; [2])	Plant response rating, Ragweed (ragweed; [3])	Plant response rating, Ragweed (ragweed; [4])	Plant response rating, Ryegrass, Italian (ryegrass, Italian; [1])	Plant response rating, Ryegrass, Italian (ryegrass, Italian; [2])	Plant response rating, Ryegrass, Italian (ryegrass, Italian; [3])	Plant response rating, Ryegrass, Italian (ryegrass, Italian; [4])	Plant response rating, Galium (galium; [5])	Plant response rating, Galium (galium; [6])	Ragweed plant response rating (ragweed; [7])	Ryegrass, Italian plant response rating (ryegrass, Italian; [7])	Plant response rating, Galium (galium; [8])	Plant response rating, Ragweed (ragweed; [9])	Plant response rating, Ragweed (ragweed; [10])	Ragweed plant response rating (0 to 100 scale, 0 is no effect, 100 is complete control) (ragweed; Postemergence, 500 g ai/ha)	Plant response rating, Ryegrass, Italian (ryegrass, Italian; [9])	Plant response rating, Ryegrass, Italian (ryegrass, Italian; [10])	Ryegrass, Italian plant response rating (0 to 100 scale, 0 is no effect, 100 is complete control) (ryegrass, Italian; Postemergence, 500 g ai/ha)	Galium plant response rating (0 to 100 scale, 0 is no effect, 100 is complete control) (galium; 500 g ai/ha)
O=C1NCC(c2cc(F)cc(F)c2)C1C(=O)Nc1ccccc1Cl (racemic) [Compound 280]	0	0	0	0	0	0	0	0	0	0	–	–	–	–	–	–	–	–	–	–
CN1CC(c2ccc(C(F)(F)F)cc2)C(C(=O)Nc2cccc(F)c2F)C1=O (centres unmarked) [Compound 306]	20	40	–	–	50	60	40	–	–	70	80	80	60	–	–	–	–	–	–	–
CC(C)c1cccc(C2CNC(=O)C2C(=O)Nc2cccc(F)c2F)c1 (centres unmarked) [Compound 319]	20	40	30	–	30	50	30	–	–	50	40	60	30	–	–	–	–	–	–	–
O=C1NCC(c2ccc(OC(F)F)cc2)C1C(=O)Nc1cccc(F)c1F (racemic) [Compound 350]	0	–	30	–	0	–	0	–	–	–	30	0	60	–	–	–	–	–	–	–
O=C1NCC(c2ccc(C(F)(F)F)cc2)C1C(=O)Nc1ccccc1F (centres unmarked) [Compound 231]	–	–	–	90	–	–	–	60	40	–	–	–	–	70	20	50	40	20	40	50
O=C1NCC(c2ccc(Cl)cc2)C1C(=O)Nc1cccc(F)c1F (centres unmarked) [Compound 218]	–	–	–	50	–	–	–	60	40	–	–	–	–	0	0	50	40	0	30	60
